ChEMBL document CHEMBL1649473, “Crystal structure of Bacillus anthracis dihydrofolate reductase with the dihydrophthalazine-based trimethoprim derivative RAB1 provides a structural explanation of potency and selectivity” (Antimicrob Agents Chemother, 2009)

Legend:
Dihydrofolate reductase [1] = biological target: T1, Dihydrofolate reductase (Bacillus anthracis, UniProt Q81R22); test: Inhibition of Bacillus anthracis DHFR
T1 sequence (Q81R22 whole entry): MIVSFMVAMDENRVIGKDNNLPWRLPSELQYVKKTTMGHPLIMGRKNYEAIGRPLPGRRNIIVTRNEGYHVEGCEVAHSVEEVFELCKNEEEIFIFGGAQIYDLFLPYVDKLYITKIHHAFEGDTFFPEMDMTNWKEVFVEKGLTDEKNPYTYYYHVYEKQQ

Dihydrofolate reductase [2] = biological target: T2, Dihydrofolate reductase (Homo sapiens, UniProt P00374); test: Inhibition of human DHFR
T2 sequence (P00374 whole entry): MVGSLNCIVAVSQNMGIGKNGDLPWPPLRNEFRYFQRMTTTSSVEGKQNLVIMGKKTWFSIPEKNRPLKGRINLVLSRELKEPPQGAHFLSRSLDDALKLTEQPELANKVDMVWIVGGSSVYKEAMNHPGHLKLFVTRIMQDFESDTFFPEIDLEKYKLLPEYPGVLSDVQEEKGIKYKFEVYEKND

Bacillus anthracis = test: Antibacterial activity against Bacillus anthracis; type: functional

**Q.** How did the IC50 (Dihydrofolate reductase [1]) turn out when `CCC[C@H]1c2ccccc2C=NN1C(=O)/C=C/c1cc(Cc2cnc(N)nc2N)cc(OC)c1OC` was run?
**A.** 0.054 µM

**Q.** And the IC50 (Dihydrofolate reductase [2])?
**A.** 110 µM

**Q.** What about the MIC (Bacillus anthracis) of the same compound?
**A.** ≤ 12.8 µg/mL

**Q.** How did the IC50 (Dihydrofolate reductase [1]) turn out when `C=CC(=O)N1N=Cc2ccccc2C1CCC` (stereo unspecified) was run?
**A.** 0.046 µM

**Q.** `CC[C@H]1c2ccccc2C=NN1C(=O)/C=C/c1cc(Cc2cnc(N)nc2N)cc(OC)c1OC` was tested. Which IC50 (Dihydrofolate reductase [1]) did it give?
**A.** 0.096 µM

**Q.** For `CCCC[C@H]1c2ccccc2C=NN1C(=O)/C=C/c1cc(Cc2cnc(N)nc2N)cc(OC)c1OC`, which IC50 (Dihydrofolate reductase [1]) is on record?
**A.** 0.17 µM
